{
  "source": "patent US4244970A",
  "about": "“Method of treating inflammation” (Forsyth Dental Infirmary for Children, priority 1979, dated 1981)",
  "molecular_target": "prostaglandin synthetase (Ovis aries, UniProt P05979)",
  "sequence (P05979 25-600)": "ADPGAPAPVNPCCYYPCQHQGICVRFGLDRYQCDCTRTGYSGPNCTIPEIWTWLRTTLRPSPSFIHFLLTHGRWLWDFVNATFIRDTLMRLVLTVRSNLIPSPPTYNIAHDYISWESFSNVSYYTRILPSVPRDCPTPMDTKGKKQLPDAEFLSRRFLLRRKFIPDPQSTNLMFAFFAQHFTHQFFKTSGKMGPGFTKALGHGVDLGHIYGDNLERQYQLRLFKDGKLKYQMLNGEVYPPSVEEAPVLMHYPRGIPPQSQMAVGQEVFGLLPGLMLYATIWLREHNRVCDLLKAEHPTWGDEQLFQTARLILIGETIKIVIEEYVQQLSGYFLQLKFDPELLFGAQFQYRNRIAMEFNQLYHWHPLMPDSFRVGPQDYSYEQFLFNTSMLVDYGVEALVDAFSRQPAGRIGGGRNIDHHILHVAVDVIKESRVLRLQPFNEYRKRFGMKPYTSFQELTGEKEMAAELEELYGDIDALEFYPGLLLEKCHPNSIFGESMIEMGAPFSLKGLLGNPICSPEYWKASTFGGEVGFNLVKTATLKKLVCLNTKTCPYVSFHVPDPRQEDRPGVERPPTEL",
  "test": "Prostaglandin synthetase inhibition, sheep vesicular gland microsomal preparation (oxygen electrode)",
  "type": "biochemical",
  "conditions": "sheep vesicular gland microsomes; 0.1 M Tris HCl pH 8.0; inhibitor added 1 minute before arachidonate; read-out: [I]50, concentration of an inhibitor that reduced prostaglandin synthesis by 50%",
  "description": "Prostaglandin synthetase activity was determined by following oxygen tension in a closed reaction chamber using a Clark-type oxygen electrode. For each assay 2.9 ml of 0.1 M Tris HCl buffer, pH 8.0, 10 ul of 0.2 M phenol, and 50 ul of enzyme suspension (2.5 mg microsomal preparation) were added to the reaction chamber. Ten ul of inhibitor in ethanol was added 1 minute prior to initiation of the reaction. The reaction was initiated by addition of 10 ul of 3.6 mM arachidonate solution. The concentration of an inhibitor that reduced prostaglandin synthesis by 50% ([I]50) was determined from plots of activity vs log concentration of inhibitor.",
  "data": [
    {"smiles": "O=C(c1ccccc1)c1ccccc1O", "note": "[2-hydroxybenzophenone]", "values": [
      {"measurement": "IC50", "result": 3.8, "unit": "µM"}
    ]}
  ]
}
